Measurements from patent US20120095445A1, “METHODS AND COMPOSITIONS FOR INCREASING TRICHOGENIC POTENCY OF DERMAL CELLS” (Aderans Research Institute, Inc., priority 2009, published 2012).

Legend:
human adult dermal cells = experiment: Aderans Hair Patch Assay (hybrid patch assay) with cultured human adult dermal cells; assay type: cell-based
Description: Trichogenic activity of populations of dermal cells can be determined by using the Aderans Hair Patch Assay™ (Zheng, Y., J Invest Dermatol, 124: 867-876 (2005)). In this assay dissociated dermal and epidermal cells are implanted into the dermis or the subcutis of an immunoincompetent mouse. Using mouse newborn skin cells, new hair follicles typically form in this assay within 8 to 10 days. The newly formed follicle manifests normal hair shafts, mature sebaceous glands, and a natural hair cycle. Although normal cycling hair follicles are formed in this assay, the assay primarily measures the ability of cells or combinations of cells to form new follicles. Mouse dermal cells are assayed in conjunction with mouse neonatal epidermal cells.
(§1) Trichogenic activity of populations of dermal cells was determined by the Aderans Hair Patch Assay™ (Zheng, Y., J Invest Dermatol, 124: 867-876 (2005)). In this assay dissociated dermal and epidermal cells are implanted into the dermis or the subcutis of an immunoincompetent mouse. Using mouse newborn skin cells, new hair follicles typically form in this assay within 8 to 10 days. The newly formed follicle manifests normal hair shafts, mature sebaceous glands, and a natural hair cycle. Although normal cycling hair follicles are formed in this assay, the assay primarily measures the ability of cells or combinations of cells to form new follicles. In the classical Patch assay mouse neonatal dermal cells were assayed in conjunction with mouse neonatal epidermal cells. In a modification of that assay human adult dermal cells are assayed in the presence of mouse newborn epidermal cells.
In the initial study four different concentrations of one of the Curls, Inc. Shh pathway agonist (agonist A-CUR-0201365) were used, 0, 0.005, 0.05 and 0.125 ug/ml (FIG. 2A). […] The number of hair follicles formed in the hair patch assay is greater when the cells are grown in the presence of the Shh pathway agonist.
To investigate if Shh pathway agonist can increase cell inductivity with short-term treatment (7 days before harvest); 3 patient samples were tested using agonist B. For each sample, the cells were treated with 0, 0.0125, 0.0375, 0.05 and 0.15 ug/ml of Shh pathway agonist B at the passage P1 or P2. P1 and P2 cells were then harvested after approximately 7 days and analyzed in the hybrid patch assay. […] Cells were treated for that 7 day period only, but not treated prior to that.

dermal cells = experiment: Growth and yield of dermal cells in culture (population doubling time, number of cells); assay type: cell-based, human
Description: FIG. 3A is a graph showing the population doubling time of dermal cells treated with the indicated amount of a Shh pathway agonist. FIG. 3B is a graph showing number of cells (millions) of dermal cells treated with Shh pathway agonist at confluence.
FIG. 5A is a graph showing the average number of cells (millions) in flasks using dermal cells treated with the indicated amount of Shh pathway agonist after one passage in culture. FIG. 5B is a graph showing the average number of cells (millions) in flasks using dermal cells treated with the indicated amount of Shh pathway agonist after two passages in culture. FIG. 5C is a graph of population doubling time (days) for dermal cells treated with the indicated amount of Shh pathway agonist after one passage in culture. FIG. 5D is a graph of population doubling time (days) for dermal cells treated with the indicated amount of Shh pathway agonist after two passages in culture.

human fetal cells = experiment: Aderans Hair Patch Assay with human fetal cell cultures; assay type: cell-based; conditions: for effect on hair number: FIG. 9
Description: FIG. 7 is a graph of the number of hair follicles formed from human fetal cell cultures in the Aderans Hair Patch Assay™ versus the indicated cell culture passage P0, P1, P2 or P3 in cells culture with a Shh pathway agonist. Each passage has a pair of columns with the left column corresponding to results obtained without treating the cells with an agonist and a right column showing results with cells treated with an agonist.
FIG. 8 is a graph of number of hair follicles formed from human fetal cell cultures in the Aderans Hair Patch Assay™ in untreated or treated cells at the indicated cell culture passage.
FIG. 9 is a graph of the number of hair follicles formed from human fetal cell cultures in the Aderans Hair Patch Assay™ in the indicated medium.
as §1
We have recently extended our study of the impact of SHH pathway agonist B (CUR-0236715) on hair inducing activity from human adult cells to human fetal cells, as well as mouse cells.
In another experiment, cells were initially cultured in medium without SHH pathway agonist. The SHH pathway agonist CUR-0236715 was only added to the culture at the beginning of a particular passage, and lasted for that passage only (P1 and P4 as shown in FIG. 8). Adding SHH pathway agonist B (CUR-0236715) at these later passages can still increase fetal cell trichogenicity.

[1] = test system: mouse neonatal dermal cells; experiment: Patch assay with mouse neonatal dermal cell culture; assay type: cell-based
Description: as §1
In addition to cultured human cells, the SHH pathway agonist B was added to mouse neonatal dermal cell culture.

SMILES | hair follicles in the patch assay (per million cells injected) compared to non-treated cells (human adult dermal cells; cells grown in medium with agonist, 0.005-0.625 ug/ml, FIG. 2) | trichogenicity with passage (P1 through P4) (human adult dermal cells; highest concentration, without agonist trichogenicity diminished) | dose-response relationship of hair follicle number in patch assay (human adult dermal cells; increasing agonist concentration in the medium) | cell growth rate (dermal cells; in the higher concentrations, FIG. 3) | increase in hair number (human fetal cells; 37.5 ng/ml at P0, FIG. 7) | effect on hair number (human fetal cells; Amniomax, Chang's media and culture medium of Osada et al.) | effect on hair number (human fetal cells; agonist added to cell culture medium) | number of hair follicles versus cells consistently treated throughout the culture (human fetal cells; agonist only at P1 or P4) | number of hair follicles formed versus no SHH control cells (human fetal cells; agonist only at P1 or P4, for that passage only, FIG. 8) | increase of hair number at later passages (human fetal cells; cells continuously cultured in the presence of agonist, FIG. 7) | short term results versus continuous treatment (human adult dermal cells; 7 day treatment only) | optimal concentration for hair follicle formation (human adult dermal cells; continuous treatment, at P2, FIG. 4B) [µg/mL] | hair follicle number in patch assays (human adult dermal cells; continuous treatment, various agonist concentrations, FIG. 4) | hair follicle numbers compared to the control (human adult dermal cells; short-term treatment (7 days before harvest), 0.0125-0.15 ug/ml, P1 or P2, 3 patient samples, FIGS. 6A and 6B) | optimal concentration (human adult dermal cells; short-term treatment (7 days), P1 and P2 cells) [µg/mL] | size of hair follicles compared to non-treated cells [1] | activity as indicated by the number of hair follicles formed in patch assay ([1]; preliminary data, FIG. 10) | adverse effect on cell growth or yield (dermal cells; all the concentrations tested, FIG. 5)
CNC1CCC(N(Cc2cc(-c3ccccc3)ccc2OC)C(=O)c2sc3ccccc3c2Cl)CC1 (stereo not drawn) [agonist A] | produced more hair follicles | remained at a high level | increasing effect (hair follicle number in patch assay) with increasing Shh pathway agonist concentration | decreases | – | – | – | – | – | – | – | – | – | – | – | – | – | –
CNC1CCC(N(Cc2cc(-c3ccc(NS(C)(=O)=O)nc3)ccc2OC)C(=O)c2sc3c(F)ccc(F)c3c2Cl)CC1 (stereo not drawn) [agonist B] | – | – | – | – | more than 3 fold | not significant | increase of hair number | equivalent | about 5 fold | extended to later passages (P3) | comparable to that of continuous treatment | 0.0375 | increased hair follicle number | higher hair follicle numbers | 0.0375 | increased significantly | increased activity | did not show any adverse effect
